Experimental data as given in US9593110B2, “Neprilysin inhibitors” (Theravence Biopharma R&D IP, LLC, priority 2014, dated 2017).

target: human NEP (Homo sapiens (Human), UniProt P08473); assay: In vitro enzyme inhibition assay at human NEP; conditions: pKi, recombinant human NEP, fluorogenic peptide substrate, 37° C.
Sequence (P08473 52-750): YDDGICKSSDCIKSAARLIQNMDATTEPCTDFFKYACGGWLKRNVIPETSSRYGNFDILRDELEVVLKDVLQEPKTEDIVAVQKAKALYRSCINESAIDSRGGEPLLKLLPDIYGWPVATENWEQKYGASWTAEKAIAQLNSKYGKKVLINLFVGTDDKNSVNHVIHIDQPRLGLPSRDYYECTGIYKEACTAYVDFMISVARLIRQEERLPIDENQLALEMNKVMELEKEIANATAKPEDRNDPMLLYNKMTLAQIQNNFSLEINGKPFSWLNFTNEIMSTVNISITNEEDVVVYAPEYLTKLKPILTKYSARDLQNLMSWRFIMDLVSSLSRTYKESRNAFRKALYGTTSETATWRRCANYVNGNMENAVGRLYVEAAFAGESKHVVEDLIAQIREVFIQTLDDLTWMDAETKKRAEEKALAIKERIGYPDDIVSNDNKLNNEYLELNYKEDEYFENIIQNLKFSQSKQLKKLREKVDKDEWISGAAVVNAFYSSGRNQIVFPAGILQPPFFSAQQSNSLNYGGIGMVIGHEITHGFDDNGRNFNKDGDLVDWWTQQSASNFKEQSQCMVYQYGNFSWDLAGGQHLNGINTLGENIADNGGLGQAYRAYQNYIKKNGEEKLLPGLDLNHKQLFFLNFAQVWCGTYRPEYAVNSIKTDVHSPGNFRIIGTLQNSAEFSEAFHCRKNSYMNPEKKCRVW
Procedure: The inhibitory activities of compounds at human and rat neprilysin (EC 3.4.24.11; NEP) and human angiotensin converting enzyme (ACE) were determined using in vitro assays as described below.
The assays were performed in 384-well white opaque plates at 37° C. using the fluorogenic peptide substrates at a concentration of 10 μM in Assay Buffer (NEP: 50 mM HEPES, pH 7.5, 100 mM NaCl, 0.01% polyethylene glycol sorbitan monolaurate (Tween-20), 10 μM ZnSO4; ACE: 50 mM HEPES, pH 7.5, 100 mM NaCl, 0.01% Tween-20, 1 μM ZnSO4).
Test compounds were assayed over the range of concentrations from 10 μM to 20 pM. Test compounds were added to the enzymes and incubated for 30 minute at 37° C. prior to initiating the reaction by the addition of substrate.
Plates were read on a fluorometer with excitation and emission wavelengths set to 320 nm and 405 nm, respectively Inhibition constants were obtained by nonlinear regression of the data using the equation (GraphPad Software, Inc., San Diego, Calif.): v=v0/[1+(I/K′)] where v is the reaction rate, v0 is the uninhibited reaction rate, I is the inhibitor concentration and K′ is the apparent inhibition constant.

| Compound | Ki |
| --- | --- |
| CCC(=O)N[C@H](C[C@@H](Cc1ccc(-c2ccccc2)cc1)NC(=O)c1c[nH]nn1)C(=O)O [Example 27, (2R,4R)-5-Biphenyl-4-yl-2-propionylamino-4-[(1H-[1,2,3]triazole-4-carbonyl)amino]pentanoic Acid] | 3.16 to 10 nM |
| NCCCC(=O)N[C@H](C[C@@H](Cc1ccc(-c2cc(Cl)ccc2F)cc1)NC(=O)c1cnn[nH]1)C(=O)O [Example 40, (2R,4R)-2-(4-Aminobutyrylamino)-5-(5′-chloro-2′-fluorobiphenyl-4-yl)-4-[(3H-[1,2,3]triazole-4-carbonyl)amino]pentanoic Acid] | ≤ 1 nM |
| CC1(C)CN(C[C@H](C[C@@H](Cc2ccc(-c3cc(Cl)ccc3F)cc2)NC(=O)c2cnn[nH]2)C(=O)O)C1 [Example 89b, (2S,4S)-5-(5′-Chloro-2′-fluorobiphenyl-4-yl)-2-(3,3-dimethylazetidin-1-ylmethyl)-4-[(3H-[1,2,3]triazole-4-carbonyl)amino]pentanoic Acid] | ≤ 1 nM |
| CN(C)CCOC[C@H](C[C@@H](Cc1ccc(-c2cc(Cl)ccc2F)cc1)NC(=O)c1c[nH]nn1)C(=O)O [Example 100, (2S,4S)-5-(5′-Chloro-2′-fluorobiphenyl-4-yl)-2-(2-dimethylamino-ethoxymethyl)-4-[(1H-[1,2,3]triazole-4-carbonyl)amino]pentanoic Acid] | ≤ 1 nM |
| CC(C)c1coc(C(=O)N[C@H](Cc2ccc(-c3cc(Cl)ccc3F)cc2)C[C@@H](NC(=O)[C@@H](C)N)C(=O)O)n1 [Example 36-2, (2R,4R)-2-((R)-2-Aminopropionylamino)-5-(5′-chloro-2′-fluorobiphenyl-4-yl)-4-[(4-isopropy-oxazole-2-carbonyl)-amino]pentanoic Acid] | 1.26 to 3.16 nM |
| COCCCN[C@H](C[C@@H](Cc1ccc(-c2cc(Cl)ccc2F)cc1)NC(=O)c1c[nH]nn1)C(=O)O [Example 97a] | ≤ 1 nM |
| CC(C)c1coc(C(=O)N[C@H](Cc2ccc(-c3cc(Cl)ccc3F)cc2)C[C@@H](NC(=O)C(C)(C)N)C(=O)O)n1 [Example 35, (2R,4R)-2-(2-Amino-2-methylpropionylamino)-5-(5′-chloro-2′-fluorobiphenyl-4-yl)-4-[(4-isopropyloxazole-2-carbonyl)amino]pentanoic Acid] | 3.16 to 10 nM |
| N#CC1CN(C[C@H](C[C@@H](Cc2ccc(-c3cc(Cl)ccc3F)cc2)NC(=O)c2cnn[nH]2)C(=O)O)C1 [Example 88b, (2S,4S)-5-(5′-Chloro-2′-fluorobiphenyl-4-yl)-2-(3-cyanoazetidin-1-ylmethyl)-4-[(3H-[1,2,3]triazole-4-carbonyl)amino]pentanoic Acid] | ≤ 1 nM |
| O=C(N[C@H](Cc1ccc(-c2cc(Cl)ccc2F)cc1)C[C@@H](CN1CC[C@@H]1CO)C(=O)O)c1cnn[nH]1 [Example 94b] | ≤ 1 nM |
| O=C(N[C@H](Cc1ccc(-c2cc(Cl)ccc2F)cc1)CC(C(=O)O)c1ccsc1)c1cnn[nH]1 (stereo in doubt) [Example 79, (S)-5-(5′-Chloro-2′-fluorobiphenyl-4-yl)-2-thiophen-3-yl-4-[(3H-[1,2,3]triazole-4-carbonyl)amino]pentanoic Acid] | 1.26 to 3.16 nM |
| CCc1cc(C(=O)N[C@H](Cc2ccc(-c3cc(Cl)ccc3F)cc2Cl)C[C@@H](N)C(=O)O)on1 [Example 18-5, (2R,4R)-2-Amino-5-(3,5′-dichloro-2′-fluorobiphenyl-4-yl)-4-[(3-ethylisoxazole-5-carbonyl)amino]pentanoic acid] | 1.26 to 3.16 nM |
| N[C@@H](C[C@@H](Cc1ccc(-c2cc(Cl)ccc2F)cc1)NC(=O)c1cc(O)no1)C(=O)O [Example 16-27, (2S,4R)-2-Amino-5-(5′-chloro-2′-fluorobiphenyl-4-yl)-4-[(3-hydroxyisoxazole-5-carbonyl)amino]pentanoic acid] | 1.26 to 3.16 nM |
| COC1CN(C[C@H](C[C@@H](Cc2ccc(-c3cc(Cl)ccc3F)cc2)NC(=O)c2c[nH]nn2)C(=O)O)C1 [Example 102b, (2S,4S)-5-(5′-Chloro-2′-fluorobiphenyl-4-yl)-2-(3-methoxyazetidin-1-ylmethyl)-4-[(1H-[1,2,3]triazole-4-carbonyl)amino]pentanoic Acid] | ≤ 1 nM |
| Cc1cnc(C(=O)N[C@H](Cc2ccc(-c3cc(Cl)ccc3F)cc2Cl)C[C@H](N)C(=O)O)o1 [Example 18-4, (2S,4R)-2-Amino-5-(3,5′-dichloro-2′-fluorobiphenyl-4-yl)-4-[(5-methyloxazole-2-carbonyl)amino]pentanoic acid] | 3.16 to 10 nM |
| Cc1cnc(C(=O)N[C@H](Cc2ccc(-c3cc(Cl)ccc3F)cc2)C[C@@H](CNC(=O)C(C)(C)N)C(=O)O)o1 [Example 45, (2S,4S)-2-[(2-Amino-2-methylpropionylamino)methyl]-5-(5′-chloro-2′-fluorobiphenyl-4-yl)-4-[(5-methyloxazole-2-carbonyl)-amino]pentanoic Acid] | ≤ 1 nM |

same assay, conditions: recombinant human NEP, fluorogenic peptide substrate, 37° C.

| Compound | pKi |
| --- | --- |
| CC(=O)c1cc(C(=O)N[C@H](Cc2ccc(-c3cc(Cl)ccc3F)cc2)C[C@@H](N)C(=O)O)[nH]n1 [Example 16-9, (2R,4R)-4-[(5-Acetyl-2H-pyrazole-3-carbonyl)amino]-2-amino-5-(5′-chloro-2′-fluoro-biphenyl-4-yl)pentanoic acid] | ≧9.0 |
| COC[C@H](C[C@@H](Cc1ccc(-c2cccc(Cl)c2)cc1)NC(=O)c1n[nH]c(C(F)(F)F)n1)C(=O)O [Example 4-1, (2S,4S)-5-(3′-Chlorobiphenyl-4-yl)-2-methoxymethyl-4-[(5-trifluoromethyl-1H-[1,2,4]triazole-3-carbonyl)amino]pentanoic acid] | ≧9.0 |
| NC(=O)C[C@H](C[C@@H](Cc1ccc(-c2ccccc2)cc1)NC(=O)c1cnn[nH]1)C(=O)O [Example 53, (2S,4S)-5-Biphenyl-4-yl-2-carbamoylmethyl-4-[(3H-[1,2,3]triazole-4-carbonyl)amino]pentanoic Acid] | ≧9.0 |
| COC(=O)N[C@H](C[C@@H](Cc1ccc(-c2cc(Cl)ccc2F)cc1)NC(=O)c1coc(=O)[nH]1)C(=O)O [Example 30-11, (2R,4R)-5-(5′-Chloro-2′-fluorobiphenyl-4-yl)-2-methoxycarbonylamino-4-[(2-oxo-2,3-dihydro-oxazole-4-carbonyl)amino]pentanoic acid] | ≧9.0 |
| CCOC[C@H](C[C@@H](Cc1ccc(-c2cccc(Cl)c2)cc1)NC(=O)c1c[nH]nn1)C(=O)O [Example 9-1, (2S,4S)-5-(3′-Chlorobiphenyl-4-yl)-2-ethoxymethyl-4-[(1H-[1,2,3]triazole-4-carbonyl)amino]pentanoic acid] | ≧9.0 |
| N[C@H](C[C@@H](Cc1ccc(-c2cc(Cl)ccc2F)cc1)NC(=O)c1coc(=O)[nH]1)C(=O)O [Example 16-31, (2R,4R)-2-Amino-5-(5′-chloro-2′-fluorobiphenyl-4-yl)-4-[(2-oxo-2,3-dihydro-oxazole-4-carbonyl)amino]pentanoic acid] | ≧9.0 |
| CCOC[C@H](C[C@@H](Cc1ccc(-c2cccc(Cl)c2)cc1)NC(=O)c1noc(=O)[nH]1)C(=O)O [Example 9-5, (2S,4S)-5-(3′-Chlorobiphenyl-4-yl)-2-ethoxymethyl-4-[(5-oxo-4,5-dihydro-[1,2,4]oxadiazole-3-carbonyl)amino]pentanoic acid] | ≧9.0 |
| CCOC[C@H](C[C@@H](Cc1ccc(-c2cc(Cl)ccc2F)cc1)NC(=O)c1noc(=O)[nH]1)C(=O)O [Example 7-10, (2S,4S)-5-(5′-Chloro-2′-fluorobiphenyl-4-yl)-2-ethoxymethyl-4-[(5-oxo-4,5-dihydro-[1,2,4]oxadiazole-3-carbonyl)amino]pentanoic acid] | ≧9.0 |
